Paper PMC3806803 (PLoS ONE, 2013)

What was measured:
[1] = target: H3 HA (recombinant) (Influenza A virus (A/Brisbane/10/2007(H3N2)), UniProt A8W8K8)
[2] = target: H7 HA (recombinant) (Influenza A virus (A/Netherlands/219/2003(H7N7)), UniProt Q6VMK1)
[3] = target: H7 HA (recombinant) (Influenza A virus (A/Netherlands/219/2003(H7N7)), UniProt Q6VMK1); remark: listed apart in the source

SMILES: CC(C)(C)c1cc(O)ccc1O [TBHQ]
- WaterLOGSY and STD NMR; competition with antibody F49 [1]: NMR experiment clearly indicates that TBHQ binds to H3 HA
- midpoint pH of proteolysis susceptibility with TBHQ [2]: ~ 4.6 pH
- WaterLOGSY and STD NMR; competition with antibody F49 [3]: TBHQ binds to H7 HA and, based on the competition NMR experiment
